Experimental data as given in patent US20210128702A1 (priority 2017, published 2021).

Legend:
Type in all cases: cell-based
U266 cells = tested on: U266 cells
4 MM cell lines = tested on: 4 MM cell lines
[1] = tested on: Non-MM, bone marrow cells (CD138−)
MM.1S cells [2] = tested on: MM.1S cells
MM.1S cells [3] = tested on: MM.1S cells; remark: listed apart in the source

tunicamycin
sensitization to Btz-induced apoptosis (U266 cells): sensitizes U266 cells to Btz-induced apoptosis

CC(C)C[C@H](NC(=O)[C@H](Cc1ccccc1)NC(=O)c1cnccn1)B(O)O [bortezomib]
polyUb protein fluorescence (proteotoxicity) (4 MM cell lines): increased fluorescence in all cell lines | polyUb proteins accumulation [1]: only modest polyUb proteins accumulation

C[C@@H]1C[C@@H]([C@H](O)CC2CC(=O)NC(=O)C2)C(=O)[C@@H](C)C1 [cycloheximide]
effect on bortezomib-induced apoptosis (MM.1S cells [2]): decreased bortezomib-induced apoptosis | effect on polyUb (MM.1S cells [3]): decreases polyUb
